Key:
[1] = test system: MDA-MB-453; experiment: In vitro cytotoxicity MTT assay; type: cell-based, human; details: IC50 ± SD
Description: (§1) Six different cell lines were used, including human breast cancer cell line MDA-MB-231 (6×10^3), MDA-MB-453 (2.4×10^4), SK-BR-3 (6×10^3), human breast epithelial cell line M10 (6×10^3), human gastric carcinoma NCI-N87 (2.4×10^4), and human colorectal adenocarcinoma SW48 (2.4×10^4), and seeded in a 96 well plate. Cell lines were obtained from Bioresource Collection and Research Center, BCRC, Taiwan. […] After 72 h, MTT assay (Cayman™) was used to determine the cellular viability.

[2] = test system: MDA-MB-231; experiment: In vitro cytotoxicity MTT assay; type: cell-based, human; details: IC50 ± SD
Description: as §1

[3] = test system: M10; experiment: In vitro cytotoxicity MTT assay; type: cell-based, human; details: IC50 ± SD
Description: as §1

[4] = test system: SW48; experiment: In vitro cytotoxicity MTT assay; type: cell-based, human; details: IC50 ± SD
Description: as §1

[5] = test system: SW48 cells; experiment: Cell apoptosis (sub-G1) by PI flow cytometry; type: cell-based, human; details: 72 h
Description: (§2) A PI/RNase staining assay (BD Bioscience™) was performed to reveal the presence of cell cycle arrest and apoptotic cells after treatment with GNTbm compounds, Chidamide and Entinostat. […] After treatment cells were harvested, fixed with 80% ethanol for 24 h, washed with 1×PBS and stained with PI/RNase for 15 min at room temperature. The cells were then analyzed using Flow Cytometer within 1 h.

[6] = target: T1, HDAC3 (Homo sapiens (Human), UniProt O15379); experiment: HDAC3 enzymatic kinetic assay; type: biochemical; details: 2 μM; 20 min, 40 min and 60 min
T1 sequence (O15379 whole entry): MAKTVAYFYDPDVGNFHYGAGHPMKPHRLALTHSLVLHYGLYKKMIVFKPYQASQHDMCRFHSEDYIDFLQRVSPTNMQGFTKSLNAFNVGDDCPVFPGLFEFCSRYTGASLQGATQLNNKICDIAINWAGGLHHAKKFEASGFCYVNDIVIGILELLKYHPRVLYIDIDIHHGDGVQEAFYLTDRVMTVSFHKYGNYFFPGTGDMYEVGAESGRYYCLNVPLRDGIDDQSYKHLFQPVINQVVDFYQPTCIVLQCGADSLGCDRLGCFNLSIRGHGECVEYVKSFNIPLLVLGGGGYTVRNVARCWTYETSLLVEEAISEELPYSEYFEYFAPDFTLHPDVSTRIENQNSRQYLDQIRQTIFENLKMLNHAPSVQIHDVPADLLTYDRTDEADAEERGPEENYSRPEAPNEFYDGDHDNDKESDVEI
T1 sequence (Q9Y618 395-489 partner): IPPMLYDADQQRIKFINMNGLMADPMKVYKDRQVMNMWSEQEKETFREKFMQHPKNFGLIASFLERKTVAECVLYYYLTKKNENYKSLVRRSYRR
Description: (§3) HDAC3 enzymatic kinetic assay was performed according to standard Protocols (Fluorgenic HDAC3 assay kit, BPS Bioscience™). […] After incubation, assay developer was added to the samples and the absorbance was read at fluorogenic wavelength. The relative inhibition to HDAC3 activity in each sample was determined.

[7] = Saturation solubility; type: physicochemical; details: ddH2O, 25° C., 90 minutes; mean ± SD; BDL: Below detection limit
Description: Samples of 5 mg of compounds were added to 5 ml volumetric flasks containing ddH2O and shaken at 100 rpm in an incubator at 25° C. for 90 minutes. The resulting suspension was filtered through a 0.22 μm filter. The concentrations of compounds were determined spectrophotometrically at 256 nm. The saturation solubility of each sample was determined in triplicates and the mean value and standard deviation were reported.

[8] = test system: SK-BR-3; experiment: In vitro cytotoxicity MTT assay; type: cell-based; details: Homo sapiens, 72 h, IC50 ± SD
Description: as §1

[9] = test system: NCI-N87; experiment: In vitro cytotoxicity MTT assay; type: cell-based; details: Homo sapiens, 72 h, IC50 ± SD
Description: as §1

[10] = test system: SW48 cells; experiment: Cell cycle arrest by PI flow cytometry; type: cell-based, human; details: for Percentage of Cell Cycle Distribution G0/G1 / Percentage of Cell Cycle Distribution G2/M / Percentage of Cell Cycle Distribution S: 72 h
Description: as §2

[11] = target: T1, HDAC3; experiment: HDACs 1, 2, and 3 enzymatic inhibition (fluorogenic kit, 1 h); type: biochemical; details: 37° C.
Description: as §3, with “HDACs” for “HDAC3 enzymatic kinetic”, “HDACs 1, 2, and 3” for “HDAC3”, “1 h,” for “incubation,”, “HDACs 1, 2, and 3 activities” for “HDAC3 activity”

[12] = target: HDAC2 (Homo sapiens (Human), UniProt Q92769); experiment: as above; type: biochemical; details: 37° C.
Sequence of HDAC2 (Q92769 whole entry): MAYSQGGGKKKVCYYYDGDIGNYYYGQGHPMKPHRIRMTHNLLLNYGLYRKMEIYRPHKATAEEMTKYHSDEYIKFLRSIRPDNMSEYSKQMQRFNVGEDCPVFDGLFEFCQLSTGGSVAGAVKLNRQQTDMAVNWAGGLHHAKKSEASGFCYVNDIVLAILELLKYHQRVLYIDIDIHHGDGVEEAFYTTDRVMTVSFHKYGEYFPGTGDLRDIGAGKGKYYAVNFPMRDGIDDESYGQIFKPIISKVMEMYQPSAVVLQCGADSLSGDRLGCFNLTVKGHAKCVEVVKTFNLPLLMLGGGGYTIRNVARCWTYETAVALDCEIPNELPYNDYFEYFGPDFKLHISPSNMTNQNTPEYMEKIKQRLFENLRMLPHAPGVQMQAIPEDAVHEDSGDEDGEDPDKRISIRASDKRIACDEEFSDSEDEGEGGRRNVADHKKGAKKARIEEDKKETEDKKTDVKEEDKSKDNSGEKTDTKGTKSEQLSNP
Description: as §3, with “HDACs” for “HDAC3 enzymatic kinetic”, “HDACs 1, 2, and 3” for “HDAC3”, “1 h,” for “incubation,”, “HDACs 1, 2, and 3 activities” for “HDAC3 activity”

[13] = target: HDAC1 (Homo sapiens (Human), UniProt Q13547); experiment: as above; type: biochemical; details: 37° C.
Sequence of HDAC1 (Q13547 whole entry): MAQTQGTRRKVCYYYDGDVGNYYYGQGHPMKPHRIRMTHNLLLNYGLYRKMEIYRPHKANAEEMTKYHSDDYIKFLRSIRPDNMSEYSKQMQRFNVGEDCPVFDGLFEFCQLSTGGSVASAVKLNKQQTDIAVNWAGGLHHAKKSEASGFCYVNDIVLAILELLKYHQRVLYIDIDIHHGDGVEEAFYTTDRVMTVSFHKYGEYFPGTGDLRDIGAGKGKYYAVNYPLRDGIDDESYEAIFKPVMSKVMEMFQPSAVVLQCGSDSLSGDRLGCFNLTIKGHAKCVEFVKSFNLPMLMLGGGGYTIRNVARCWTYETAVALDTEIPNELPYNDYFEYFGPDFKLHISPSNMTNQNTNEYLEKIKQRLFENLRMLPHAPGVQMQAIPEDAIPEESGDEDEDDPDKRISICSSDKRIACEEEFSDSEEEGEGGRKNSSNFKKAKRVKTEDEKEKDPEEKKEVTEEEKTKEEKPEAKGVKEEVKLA
Description: as §3, with “HDACs” for “HDAC3 enzymatic kinetic”, “HDACs 1, 2, and 3” for “HDAC3”, “1 h,” for “incubation,”, “HDACs 1, 2, and 3 activities” for “HDAC3 activity”

What does the source list for `Nc1cc(F)ccc1NC(=O)c1ccc(CNC(=O)/C=C/c2cccnc2)cc1` [Chidamide, reference compound]?
IC50 ([1]; 72 h): 1.36 ± 0.12 µM; IC50 ([1]; Homo sapiens, MDA-MB-453, 72 h): 1.77 ± 0.02 µM; IC50 ([2]; 72 h): 17.4 ± 1.98 µM; IC50 ([2]; Homo sapiens, MDA-MB-231, 72 h): 25.6 ± 3.05 µM; IC50 ([3]; 72 h): 4.94 ± 0.87 µM; IC50 ([3]; Homo sapiens, M10, 72 h): 2.72 ± 2.6 µM; IC50 ([4]; 72 h): 5.43 ± 1.06 µM; Percentages of Cell Apoptosis ([5]; SW48, 0.3125 μM): 9.0%; Percentages of Cell Apoptosis ([5]; SW48, 0.625 μM): 10.2%; Percentages of Cell Apoptosis ([5]; SW48, 1.25 μM): 15.1%; Percentages of Cell Apoptosis ([5]; SW48, 5 μM): 35.4%; Inhibition of HDAC 3 enzyme activities (kinetics) [6]: stronger inhibition of HDAC 3 enzyme activities than Entinostat; Saturation Solubility [7]: BDL; IC50 [8]: 3.24 ± 0.98 µM; IC50 [9]: 3.09 ± 0.2 µM; Percentage of Cell Cycle Distribution G0/G1 ([10]; SW48, 0.3125 μM): 65.7%; Percentage of Cell Cycle Distribution G2/M ([10]; SW48, 0.3125 μM): 16.7%; Percentage of Cell Cycle Distribution S ([10]; SW48, 0.3125 μM): 17.6%; Percentage of Cell Cycle Distribution G0/G1 ([10]; SW48, 0.625 μM): 68.1%; Percentage of Cell Cycle Distribution G2/M ([10]; SW48, 0.625 μM): 17.5%; Percentage of Cell Cycle Distribution S ([10]; SW48, 0.625 μM): 14.4%; Percentage of Cell Cycle Distribution G0/G1 ([10]; SW48, 1.25 μM): 70.6%; Percentage of Cell Cycle Distribution G2/M ([10]; SW48, 1.25 μM): 15.3%; Percentage of Cell Cycle Distribution S ([10]; SW48, 1.25 μM): 14.1%; Percentage of Cell Cycle Distribution G0/G1 ([10]; SW48, 5 μM): 79.9%; Percentage of Cell Cycle Distribution G2/M ([10]; SW48, 5 μM): 11.6%; Percentage of Cell Cycle Distribution S ([10]; SW48, 5 μM): 8.5%; Cell cycle arrest ([10]; SW48, doses of Table 12): induced cell cycle arrest in the G0/G1 phase

Which results are given for `Cc1ccc(/C=C/CC(=O)Nc2ccc(C(=O)Nc3ccc(F)cc3N)cn2)cn1` [GNTbm-01, 6-((E)-4-(6-methylpyridin-3-yl)but-3-enamido)-N-(2-amino-4-fluorophenyl)pyridine-3-carboxamide]?
IC50 ([1]; Homo sapiens, MDA-MB-453, 72 h): 20.9 ± 4.44 µM; IC50 ([2]; Homo sapiens, MDA-MB-231, 72 h): 49.8 ± 4.9 µM; IC50 ([3]; Homo sapiens, M10, 72 h): 24.8 ± 1.15 µM; IC50 ([4]; Homo sapiens, SW48, 72 h): > 50 µM; IC50 [8]: 28.5 ± 1.85 µM; IC50 [11]: 2.75 ± 0.13 µM; IC50 [12]: 2.68 ± 0.2 µM; IC50 [13]: 6.77 ± 0.76 µM

— US11672788B2, “Histone deacetylase inhibitors for immunomodulation in tumor microenvironment” (GREAT NOVEL THERAPEUTICS BIOTECH & MEDICALS CORPORATION, priority 2020, dated 2023)
